Assay results published in paper PMC2009770, “Thiophene analogues of the carcinogens benzidine and 4-aminobiphenyl: evaluation in vitro” (British Journal of Cancer, 1978).
Blank lines part the entries; values can stand above or below the compound they belong to.

What was measured:
[1] = parameters: method as in Laham & Sinclair, 1969; details: rats; ref Laham & Sinclair, 1969; cited from earlier work
[2] = ref Ashby & Cook, 1974; cited from earlier work
[3] = test system: Salmonella strains TA 1535, TA 1538, TA 98 and TA 100; assay: Salmonella reverse-mutation assay of Ames; details: for response in the Ames assay (Fig. 1): strain TA 1538, presence of Aroclor 1254-induced rat liver S-9 mix
BHK 21/C13 cells [4] = assay: cell-transformation assay of Styles; details: presence of S-9 mix, 2 separate occasions (Fig. 2)
[5] = chemical stability to heat, light and air (monitored by TLC and m.p.); assay type: physicochemical; details: for stability to heat and light: monitored by TLC and m.p.; for behaviour of the solid in air and light: noted at preparation
BHK 21/C13 cells [6] = assay: parallel cell-toxicity assay (% survivors) of the transformation assay; assay type: cell-based

SMILES: Nc1ccc(-c2ccc([N+](=O)[O-])cc2)cc1 [4-nitro-4'-aminobiphenyl]
bladder cancer induction [1]: induces bladder cancer

SMILES: Nc1ccc2c(c1)sc1ccccc12 [VII, 3-amino-dibenzothiophene]
carcinogenicity [2]: carcinogenicity

SMILES: Nc1ccc(-c2ccc(N)cc2)cc1 [XI, benzidine]
bladder cancer induction [1]: induces bladder cancer
response in the Ames assay ([3]; 4 Salmonella strains, 3 separate occasions, presence and absence of Aroclor 1254-induced rat liver S-9 mix): positive on each occasion
response in the Ames assay (Fig. 1) [3]: positive response
response in the cell-transformation assay (BHK 21/C13 cells [4]): positive

stability to heat and light [5]: unstable to heat and light
behaviour of the solid in air and light [5]: sensitive to light and air
SMILES: CC(=O)Nc1ccc(-c2ccc(N)s2)cc1.Cl [XIII, 5-p-acetamidophenyl-2-thiophenamine hydrochloride]

stability to heat and light [5]: unstable to heat and light
behaviour of the solid in air and light [5]: discolours quickly in air and light
SMILES: Cl.Nc1ccc(-c2ccccc2)s1 [XIV, 5-phenyl-2-thiophenamine hydrochloride]

SMILES: CC(=O)Nc1ccc(-c2ccc(NC(C)=O)s2)cc1 [XV, N-(5-p-acetamido-phenylthiophen-2-yl)acetamide]
response in the Ames assay (Fig. 1) [3]: positive response
stability to heat and light [5]: stable
cytotoxicity (toxicity curve, % survivors) (BHK 21/C13 cells [6]): toxicity curve similar to that of benzidine

stability to heat and light [5]: stable
SMILES: CC(=O)Nc1ccc(-c2ccccc2)s1 [XVI, N-(5-phenylthiophen-2-yl)-acetamide]
cytotoxicity (toxicity curve, % survivors) (BHK 21/C13 cells [6]): toxicity curve similar to that of benzidine
